Source: article PMC11571012, “Synthesis and Preclinical Evaluation of a Bispecific PSMA-617/RM2 Heterodimer Targeting Prostate Cancer” (ACS Medicinal Chemistry Letters, 2024)
Like-named read-outs stand apart in the source and are kept apart here.

What was measured:
[1] = target: PSMA (LNCaP, PC-3 PIP); conditions: read-out: Ki, LNCaP (literature), LNCaP cells, literature data, ref 2 (SI); cited from earlier work
Experimental: This mixture was removed after incubation and the wells were washed on a multiscreen vacuum manifold (Millipore, Billerica, MA) three times with PBS. The following detection of cell-bound radioactivity was measured using a gamma counter (Packard Cobra II, GMI, Minnesota, USA).

[2] = Radio RP-HPLC analysis (elution order); conditions: radiolabeled ligands; Chromolith RP-18e, 0−100% AcCN (0.1% TFA) in 6 min, 4 mL/min; said to agree with logD
[3] = target: T1, PSMA receptor in LNCaP cells (PSMA+, GRPR-) (Homo sapiens, UniProt Q04609); assay: Cell-based competitive binding assay in LNCaP cells against [68Ga]Ga-PSMA-10; conditions: 10^5 cells/well, against [68Ga]Ga-PSMA-10 0.75 nM, analyte 0–5000 nM, 45 min, gamma counter, quadruplicate
T1 construct: Briefly, LNCaP 10 5 cells per well; host or cells: LNCaP cells
Experimental: Each value was measured in quadruplicate.
Cell Culture & cell assays
In vitro and in vivo experiments were performed with the following cell lines: the GRPR positive PC -3 cells
supplemented with 10% fetal calf serum and 2 mM L -glutamine (Invitrogen, Carlsbad, CA, USA). Cells
were grown at 37 °C in humidified air with 5% CO 2. Trypsin-ethylenediaminetetraacetic acid (trypsin -
EDTA; 0.25% tryps in, 0.02% EDTA, Invitrogen) was used for cell harvesting.
Determination of Binding Affinity in LNCaP and PC -3 cells
3-5 Briefly, LNCaP 10 5 cells per well
PSMA-10, precursor purchased from ABX, Radeberg , Germany) and an ascending series of 12 different
45 min). This mixture was removed after incubation and the wells were washed on a multiscreen vacuum
manifold (Millipore, Billerica, MA) three times with PBS. The following detection of cell-bound
radioactivity was measured using a gamma counter (Packard Cobra II, GMI, Minnesota, USA).
fitted with a nonlinear regression algorithm (GraphPad Software) to determine the 50% inhibitory
concentration (IC50) values.
min. After incubation the mixture was removed, the wells were washed with PBS and the cell -bound
radioactivity was measured using a gamma counter (Hidex AMG - Automated Gamma Counter).

[4] = tested on: PC-3 tumors; conditions: in vivo; cited from earlier work
[5] = target: T1, PSMA receptor in LNCaP cells (PSMA+, GRPR-); conditions: standard used at C = 0.75 nM; no reference given; read-out: IC50 of standard radioligand (PSMA); cited from earlier work

T1 sequence (Q04609 whole entry): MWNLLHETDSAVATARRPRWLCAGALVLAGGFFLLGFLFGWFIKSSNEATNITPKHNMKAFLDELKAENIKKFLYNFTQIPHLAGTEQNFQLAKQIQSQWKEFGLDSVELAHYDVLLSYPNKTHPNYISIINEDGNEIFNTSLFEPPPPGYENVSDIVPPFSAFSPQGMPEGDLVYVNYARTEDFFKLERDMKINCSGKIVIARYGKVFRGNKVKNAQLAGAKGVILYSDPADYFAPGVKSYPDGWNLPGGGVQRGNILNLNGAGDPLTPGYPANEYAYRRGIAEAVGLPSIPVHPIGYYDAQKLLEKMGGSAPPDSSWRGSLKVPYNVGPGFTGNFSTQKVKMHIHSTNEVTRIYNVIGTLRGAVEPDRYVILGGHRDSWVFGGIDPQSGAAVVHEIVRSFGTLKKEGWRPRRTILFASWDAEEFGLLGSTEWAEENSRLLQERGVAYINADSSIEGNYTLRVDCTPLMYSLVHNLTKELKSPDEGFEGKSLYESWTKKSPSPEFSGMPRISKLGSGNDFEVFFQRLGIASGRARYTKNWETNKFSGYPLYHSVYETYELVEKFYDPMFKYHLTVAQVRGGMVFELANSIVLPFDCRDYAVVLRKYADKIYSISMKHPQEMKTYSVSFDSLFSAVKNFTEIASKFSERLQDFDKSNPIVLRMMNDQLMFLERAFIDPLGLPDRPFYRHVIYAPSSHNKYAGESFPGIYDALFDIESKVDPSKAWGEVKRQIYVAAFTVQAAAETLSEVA

## O=C(O)CC[C@H](NC(=O)N[C@@H](CCCCNC(=O)[C@H](Cc1ccc2ccccc2c1)NC(=O)[C@H]1CC[C@H](CNC(=O)CN2CCN(CC(=O)O)CCN(CC(=O)O)CCN(CC(=O)O)CC2)CC1)C(=O)O)C(=O)O [PSMA-617 (1), vipivotide tetraxetan]
[1]
  Ki: 2.34 nM
[2]
  Elution order in radio RP-HPLC: eluted first
[3]
  IC50: 6.41 nM

## CC(C)C[C@H](NC(=O)C[C@H](O)[C@H](CC(C)C)NC(=O)[C@H](Cc1c[nH]cn1)NC(=O)CNC(=O)[C@@H](NC(=O)[C@H](C)NC(=O)[C@H](Cc1c[nH]c2ccccc12)NC(=O)[C@H](CCC(N)=O)NC(=O)[C@@H](Cc1ccccc1)NC(=O)CN1CCC(NC(=O)CN2CCN(CC(=O)O)CCN(CC(=O)O)CCN(CC(=O)O)CC2)CC1)C(C)C)C(N)=O [[68Ga]Ga-RM2] [metal not drawn]
[4]
  Kidneys uptake: 3.34 ± 0.54 % ID/g

## [Glu-urea-Lys(Ahx)]2-HBED-CC [[^68Ga]Ga-PSMA-10]
[5]
  IC50: 3.8 ± 1.8 nM
